Counter-ions that a name gives are not always drawn.

The assay deals with recombinant NL4-3 virus (Renilla luciferase, Gag P373S). In words: HIV cell culture assay (luciferase reporter, MT-2 cells). Format: cell-based. To be noted: Renilla, NL43, MT-2 cells infected for 4-5 days with NLRluc recombinants; luciferase activity. The procedure: MT-2 cells and 293T cells were obtained from the NIH AIDS Research and Reference Reagent Program. MT-2 cells were propagated in RPMI 1640 media supplemented with 10% heat inactivated fetal bovine serum, […]. The 293T cells were propagated in DMEM media supplemented with 10% heat inactivated fetal bovine serum (FBS), 100 units/ml penicillin G and 100 μg/ml streptomycin. The proviral DNA clone of NL4-3 was obtained from the NIH AIDS Research and Reference Reagent Program. A recombinant NL4-3 virus, in which a section of the nef gene from NL4-3 was replaced with the Renilla luciferase gene, was used as a reference virus. In addition, residue Gag P373 was converted to P373S. Briefly, the recombinant virus was prepared by transfection of the altered proviral clone of NL4-3. Transfections were performed in 293T cells using LipofectAMINE PLUS from Invitrogen (Carlsbad, Calif.), according to manufacturer's instruction. The virus was titered in MT-2 cells using luciferase enzyme activity as a marker. Luciferase was quantitated using the Dual Luciferase kit from Promega (Madison, Wis.), with modifications to the manufacturer's protocol. The diluted Passive Lysis solution was pre-mixed with the re-suspended Luciferase Assay Reagent and the re-suspended Stop & Glo Substrate (2:1:1 ratio). Fifty (50) μL of the mixture was added to each aspirated well on assay plates and luciferase activity was measured immediately on a Wallac TriLux (Perkin-Elmer). Antiviral activities of inhibitors toward the recombinant virus were quantified by measuring luciferase activity in cells infected for 4-5 days with NLRluc recombinants in the presence serial dilutions of the inhibitor.
`C=C(C)[C@@H]1CC[C@]2(NCCN3CCS(=O)(=O)CC3)CC[C@]3(C)[C@H](CC[C@@H]4[C@@]5(C)CC=C(C6=CC7(C6)CC(C(=O)O)(C(=O)O)C7)C(C)(C)[C@@H]5CC[C@]43C)[C@@H]12` [Example 1, 6-((1R,3aS,5aR,5bR,7aR,11aS,11bR,13aR,13bR)-3a-((2-(1,1-dioxidothiomorpholino)ethyl)amino)-5a,5b,8,8,11a-pentamethyl-1-(prop-1-en-2-yl)-2,3,3a,4,5,5a,5b,6,7,7a,8,11,11a,11b,12,13,13a,13b-octadecahydro-1H-cyclopenta[a]chrysen-9-yl)spiro[3.3]hept-5-ene-2,2-dicarboxylic acid, HCl]: the EC50 – broadly, the concentration at which the effect is half-maximal – turned out to be 10 nM. In the case of `C=C(C)[C@@H]1CC[C@]2(NCCN3CCS(=O)(=O)CC3)CC[C@]3(C)[C@H](CC[C@@H]4[C@@]5(C)C=CC(=C6CC7(C6)CC(C(=O)O)(C(=O)O)C7)C(C)(C)[C@@H]5CC[C@]43C)[C@@H]12` [Example 2, 6-((1R,3aS,5aR,5bR,7aR,11aS,11bR,13aR,13bR)-3a-((2-(1,1-dioxidothiomorpholino)ethyl)amino)-5a,5b,8,8,11a-pentamethyl-1-(prop-1-en-2-yl)-2,3,3a,4,5,5a,6,7,7a,8,11b,12,13,13a-tetradecahydro-1H-cyclopenta[a]chrysen-9(5bH,11aH,13bH)-ylidene)spiro[3.3]heptane-2,2-dicarboxylic acid, HCl] it was 30 nM; in that of `C=C(C)[C@@H]1CC[C@]2(NCCN3CCS(=O)(=O)CC3)CC[C@]3(C)[C@H](CC[C@@H]4[C@@]5(C)CC=C(C6=CC7(C6)CC(C(=O)O)C7)C(C)(C)[C@@H]5CC[C@]43C)[C@@H]12` (stereo partly drawn) [Example 3, 6-((1R,3aS,5aR,5bR,7aR,11aS,11bR,13aR,13bR)-3a-((2-(1,1-dioxidothiomorpholino)ethyl)amino)-5a,5b,8,8,11a-pentamethyl-1-(prop-1-en-2-yl)-2,3,3a,4,5,5a,5b,6,7,7a,8,11,11a,11b,12,13,13a,13b-octadecahydro-1H-cyclopenta[a]chrysen-9-yl)spiro[3.3]hept-5-ene-2-carboxylic acid, HCl], 1.54 nM; in that of `C=C(C)[C@@H]1CC[C@]2(NCCN3CCS(=O)(=O)CC3)CC[C@]3(C)[C@H](CC[C@@H]4[C@@]5(C)CC=C(C6=CCC(C(=O)O)CC6)C(C)(C)[C@@H]5CC[C@]43C)[C@@H]12` (stereo partly drawn) [Example 4, 4-((1R,3aS,5aR,5bR,7aR,11aS,11bR,13aR,13bR)-3a-((2-(1,1-dioxidothiomorpholino)ethyl)amino)-5a,5b,8,8,11a-pentamethyl-1-(prop-1-en-2-yl)-2,3,3a,4,5,5a,5b,6,7,7a,8,11,11a,11b,12,13,13a,13b-octadecahydro-1H-cyclopenta[a]chrysen-9-yl)cyclohex-3-enecarboxylic acid, TFA], 0.659 nM. Turning to `CC(C)[C@@H]1CC[C@]2(NCCN3CCS(=O)(=O)CC3)CC[C@]3(C)[C@H](CC[C@@H]4[C@@]5(C)CC=C(C6CC7(C6)CC(C(=O)O)(C(=O)O)C7)C(C)(C)[C@@H]5CC[C@]43C)[C@@H]12` [Example 5, 6-((1S,3aS,5aR,5bR,7aR,11aS,11bR,13aR,13bR)-3a-((2-(1,1-dioxidothiomorpholino)ethyl)amino)-1-isopropyl-5a,5b,8,8,11a-pentamethyl-2,3,3a,4,5,5a,5b,6,7,7a,8,11,11a,11b,12,13,13a,13b-octadecahydro-1H-cyclopenta[a]chrysen-9-yl)spiro[3.3]heptane-2,2-dicarboxylic acid, TFA], the half-maximal effective concentration (EC50) was found to be 40 nM. To `C=C(C)[C@@H]1CC[C@]2(C(=O)O)CC[C@]3(C)[C@H](CC[C@@H]4[C@@]5(C)CC=C(C6=CC7(C6)CC(C(=O)O)(C(=O)O)C7)C(C)(C)[C@@H]5CC[C@]43C)[C@@H]12` [Example 6, 6-((1R,3aS,5aR,5bR,7aR,11aS,11bR,13aR,13bR)-3a-carboxy-5a,5b,8,8,11a-pentamethyl-1-(prop-1-en-2-yl)-2,3,3a,4,5,5a,5b,6,7,7a,8,11,11a,11b,12,13,13a,13b-octadecahydro-1H-cyclopenta[a]chrysen-9-yl)spiro[3.3]hept-5-ene-2,2-dicarboxylic acid] belongs 30 nM. To `C=C(C)[C@@H]1CC[C@]2(NCCN3CCS(=O)(=O)CC3)CC[C@]3(C)[C@H](CC[C@@H]4[C@@]5(C)CC=C(C6=CCC(C(=O)O)(C(=O)O)CC6)C(C)(C)[C@@H]5CC[C@]43C)[C@@H]12` [Example 7, 4-((1R,3aS,5aR,5bR,7aR,11aS,11bR,13aR,13bR)-3a-((2-(1,1-dioxidothiomorpholino)ethyl)amino)-5a,5b,8,8,11a-pentamethyl-1-(prop-1-en-2-yl)-2,3,3a,4,5,5a,5b,6,7,7a,8,11,11a,11b,12,13,13a,13b-octadecahydro-1H-cyclopenta[a]chrysen-9-yl)cyclohex-3-ene-1,1-dicarboxylic acid, TFA] belongs 100 nM. In the case of `CC(C)[C@@H]1CC[C@]2(NCCN3CCS(=O)(=O)CC3)CC[C@]3(C)[C@H](CC[C@@H]4[C@@]5(C)CC=C(C6=CCC(C(=O)O)CC6)C(C)(C)[C@@H]5CC[C@]43C)[C@@H]12` (stereo partly drawn) [Example 8, 4-((1S,3aS,5aR,5bR,7aR,11aS,11bR,13aR,13bR)-3a-((2-(1,1-dioxidothiomorpholino)ethyl)amino)-1-isopropyl-5a,5b,8,8,11a-pentamethyl-2,3,3a,4,5,5a,5b,6,7,7a,8,11,11a,11b,12,13,13a,13b-octadecahydro-1H-cyclopenta[a]chrysen-9-yl)cyclohex-3-enecarboxylic acid, TFA] it was 1.01 nM; in that of `C=C(C)[C@@H]1CC[C@]2(NCCN3CCS(=O)(=O)CC3)CC[C@]3(C)[C@H](CC[C@@H]4[C@@]5(C)CC=C(C6=CCC(O)(C(=O)O)CC6)C(C)(C)[C@@H]5CC[C@]43C)[C@@H]12` (stereo partly drawn) [Example 11, 4-((1R,3aS,5aR,5bR,7aR,11aS,11bR,13aR,13bR)-3a-((2-(1,1-dioxidothiomorpholino)ethyl)amino)-5a,5b,8,8,11a-pentamethyl-1-(prop-1-en-2-yl)-2,3,3a,4,5,5a,5b,6,7,7a,8,11,11a,11b,12,13,13a,13b-octadecahydro-1H-cyclopenta[a]chrysen-9-yl)-1-hydroxycyclohex-3-enecarboxylic acid, TFA], 1.99 nM. Consider `C=C(C)[C@@H]1CC[C@]2(NCCN3CCN(S(C)(=O)=O)CC3)CC[C@]3(C)[C@H](CC[C@@H]4[C@@]5(C)CC=C(C6=CCC(C(=O)O)CC6)C(C)(C)[C@@H]5CC[C@]43C)[C@@H]12` (stereo partly drawn) [Example 12, 4-((1R,3aS,5aR,5bR,7aR,11aS,11bR,13aR,13bR)-5a,5b,8,8,11a-pentamethyl-3a-((2-(4-(methylsulfonyl)piperazin-1-yl)ethyl)amino)-1-(prop-1-en-2-yl)-2,3,3a,4,5,5a,5b,6,7,7a,8,11,11a,11b,12,13,13a,13b-octadecahydro-1H-cyclopenta[a]chrysen-9-yl)cyclohex-3-enecarboxylic acid, TFA], for which the EC50 amounted to 3.03 nM.

For the compound `C=C(C)[C@@H]1CC[C@]2(NCCN3CCC(S(C)(=O)=O)CC3)CC[C@]3(C)[C@H](CC[C@@H]4[C@@]5(C)CC=C(C6=CCC(C(=O)O)CC6)C(C)(C)[C@@H]5CC[C@]43C)[C@@H]12` (stereo partly drawn) [Example 13, 4-((1R,3aS,5aR,5bR,7aR,11aS,11bR,13aR,13bR)-5a,5b,8,8,11a-pentamethyl-3a-((2-(4-(methylsulfonyl)piperidin-1-yl)ethyl)amino)-1-(prop-1-en-2-yl)-2,3,3a,4,5,5a,5b,6,7,7a,8,11,11a,11b,12,13,13a,13b-octadecahydro-1H-cyclopenta[a]chrysen-9-yl)cyclohex-3-enecarboxylic acid, TFA], the EC50 was found to be 0.975 nM. To `C=C(C)[C@@H]1CC[C@]2(NCCN3CCOCC3)CC[C@]3(C)[C@H](CC[C@@H]4[C@@]5(C)CC=C(C6=CCC(C(=O)O)CC6)C(C)(C)[C@@H]5CC[C@]43C)[C@@H]12` (stereo partly drawn) [Example 14, 4-((1R,3aS,5aR,5bR,7aR,11aS,11bR,13aR,13bR)-5a,5b,8,8,11a-pentamethyl-3a-((2-morpholinoethyl)amino)-1-(prop-1-en-2-yl)-2,3,3a,4,5,5a,5b,6,7,7a,8,11,11a,11b,12,13,13a,13b-octadecahydro-1H-cyclopenta[a]chrysen-9-yl)cyclohex-3-enecarboxylic acid, TFA] belongs 5.61 nM. Take `C=C(C)[C@@H]1CC[C@]2(NCCN3CCC(S(C)(=O)=O)CC3)CC[C@]3(C)[C@H](CC[C@@H]4[C@@]5(C)CC=C(C6=CC[C@H](C(=O)O)CC6)C(C)(C)[C@@H]5CC[C@]43C)[C@@H]12` [Example 15, (R)-4-((1R,3aS,5aR,5bR,7aR,11aS,11bR,13aR,13bR)-5a,5b,8,8,11a-pentamethyl-3a-((2-(4-(methylsulfonyl)piperidin-1-yl)ethyl)amino)-1-(prop-1-en-2-yl)-2,3,3a,4,5,5a,5b,6,7,7a,8,11,11a,11b,12,13,13a,13b-octadecahydro-1H-cyclopenta[a]chrysen-9-yl)cyclohex-3-enecarboxylic acid, TFA]: the EC50 stood at 1.36 nM.

Values taken from US8906889B2, “C-3 cycloalkenyl triterpenoids with HIV maturation inhibitory activity” (priority 2012, dated 2014).
